Test results reported in patent US10392630B2, “Plants having increased tolerance to herbicides” (BASF AGRO B.V., priority 2013, dated 2019).
“And” between values parts separate entries of the source, which are not always exact repeats. Equal entries are not always repeated.

Experiments:
[1] = system: transgenic Arabidopsis thaliana plants; assay: Growth inhibition of transgenic Arabidopsis in 48-well plates, tolerance factor (Table 5, FIG. 2); format: in vivo; conditions: growth inhibition seven to ten days after seeding
[2] = system: transgenic T0 corn events; assay: Herbicide injury of transgenic T0 corn events, greenhouse spray (Table 6a); format: in vivo, Zea mays; parameters: key: 0 is no injury relative to an unsprayed wild type check; 9 is completely dead; conditions: 7 days after treatment
[3] = system: transgenic soybean cv Jake cuttings; assay: Herbicide injury of transgenic soybean cuttings from T0 plants (Table 7, FIG. 4); format: in vivo, Glyceine max; conditions: V2 spray, 1 week after treatment
[4] = system: Alopecurus wildtype PPO (ALOMY), PPO herbicide sensitive PPO2, SEQ ID NO 2; assay: PPO enzyme assay, dose-response (fluorescence), wildtype Alopecurus PPO2; format: biochemical, Alopecurus myosuroides; conditions: Table 3a; PPO herbicide sensitive PPO2, SEQ ID NO 2, ALOMY
[5] = molecular target: Alopecurus mutant PPO (ALOMY), SEQ ID NO 2 with amino acid substitution; assay: PPO enzyme assay, dose-response (fluorescence), mutated Alopecurus PPO2; format: biochemical, Alopecurus myosuroides

In the case of `CC(C)N(C)S(=O)(=O)NC(=O)c1cc(-n2c(=O)cc(C(F)(F)F)n(C)c2=O)c(F)cc1Cl` [saflufenacil], the “TF (Tolerance Factor), relative tolerance rate (non-transgenic = 1.0)” value ([1]; transgenic Arabidopsis Am_PPO2_F438I) is reported as 3300, the “TF (Tolerance Factor), relative tolerance rate (non-transgenic = 1.0)” value ([1]; transgenic Arabidopsis Am_PPO2_R137A) is reported as 1500 and the “TF (Tolerance Factor), relative tolerance rate (non-transgenic = 1.0)” value ([1]; transgenic Arabidopsis Am_PPO2_R137A_F438I) is reported as 950. The “TF (Tolerance Factor), relative tolerance rate (non-transgenic = 1.0)” value ([1]; transgenic Arabidopsis Am_PPO2_R137A_F438L) was 2300, the “TF (Tolerance Factor), relative tolerance rate (non-transgenic = 1.0)” value ([1]; transgenic Arabidopsis Am_PPO2_R137A_F438M) was 2500 and the “TF (Tolerance Factor), relative tolerance rate (non-transgenic = 1.0)” value ([1]; transgenic Arabidopsis Am_PPO2_R137A_F438V) was 2500. For the same compound, the “TF (Tolerance Factor), relative tolerance rate (non-transgenic = 1.0)” value ([1]; transgenic Arabidopsis Am_PPO2_R137I) was 2140, the “TF (Tolerance Factor), relative tolerance rate (non-transgenic = 1.0)” value ([1]; transgenic Arabidopsis Am_PPO2_R137L_F438I) was 2700 and the “TF (Tolerance Factor), relative tolerance rate (non-transgenic = 1.0)” value ([1]; transgenic Arabidopsis Am_PPO2_R137L_F438L) was 2700. For the same compound, the “TF (Tolerance Factor), relative tolerance rate (non-transgenic = 1.0)” value ([1]; transgenic Arabidopsis Am_PPO2_R137L_F438M) was 3100, the “TF (Tolerance Factor), relative tolerance rate (non-transgenic = 1.0)” value ([1]; transgenic Arabidopsis Am_PPO2_R137M_F438I) was 1740 and the “TF (Tolerance Factor), relative tolerance rate (non-transgenic = 1.0)” value ([1]; transgenic Arabidopsis Am_PPO2_R137M_F438L) was 1340. The “TF (Tolerance Factor), relative tolerance rate (non-transgenic = 1.0)” value ([1]; transgenic Arabidopsis Am_PPO2_R137M_F438M) was 1700, the “TF (Tolerance Factor), relative tolerance rate (non-transgenic = 1.0)” value ([1]; transgenic Arabidopsis Am_PPO2_R137M_F438V) was 1900 and the “Herbicide injury, 0 to 9 rating scale” value ([2]; T0 corn events tp-SorbiPPO2::AlomyPPO2_F431V, 75 g ai/ha + 1% (v/v) MSO at V2 stage) was 3. For the same compound, the “Herbicide injury, 0 to 9 rating scale” value ([2]; T0 corn events tp-SorbiPPO2::AlomyPPO2_R130A_F431V, 75 g ai/ha + 1% (v/v) MSO at V2 stage) was 7, the “Herbicide injury, 0 to 9 rating scale” value ([2]; T0 corn events tp-ZeamaPPO2::AlomyPPO2_F431V, 75 g ai/ha + 1% (v/v) MSO at V2 stage) was 0 and the “Herbicide injury, 0 to 9 rating scale” value ([2]; T0 corn events tp-ZeamaPPO2::AlomyPPO2_R130A, 75 g ai/ha + 1% (v/v) MSO at V2 stage) was 0. The “Herbicide injury, 0 to 9 rating scale” value ([2]; untransformed wild type corn, 50 g ai/ha + 1% (v/v) MSO at V2 stage) was 7, the “Herbicide injury, 0 to 9 rating scale” value ([2]; untransformed wild type corn, 75 g ai/ha + 1% (v/v) MSO at V2 stage) was 8 and the “Herbicide injury, 0 to 9 rating scale” value ([2]; untransformed wild type corn, 100 g ai/ha + 1% (v/v) MSO at V2 stage) was 8. For the same compound, the Herbicide injury ([3]; AlomyPPO1_R138A T0 cuttings, BAS 800H 25 g ai/ha) was 6 and 9, the Herbicide injury ([3]; AlomyPPO1_R138A_Y420M T0 cuttings, BAS 800H 25 g ai/ha) was 0 and the Herbicide injury ([3]; AlomyPPO1_R138A_Y420M T0 cuttings, BAS 800H 50 g ai/ha) was 3. The Herbicide injury ([3]; AlomyPPO1_R138A_Y420M T0 cuttings, BAS 800H 100 g ai/ha) was 3, the Herbicide injury ([3]; AlomyPPO1_R138L T0 cuttings, BAS 800H 25 g ai/ha) was 8 and 7 and 6 and the Herbicide injury ([3]; AlomyPPO1_R138L T0 cuttings, BAS 800H 50 g ai/ha) was 8 and 9 and 6 and 7. The Herbicide injury ([3]; AlomyPPO1_R138L T0 cuttings, BAS 800H 100 g ai/ha) was 8 and 9, the Herbicide injury ([3]; AlomyPPO1_Y420M T0 cuttings, BAS 800H 50 g ai/ha) was 5 and 4 and 8 and the Herbicide injury ([3]; AlomyPPO1_Y420M T0 cuttings, BAS 800H 100 g ai/ha) was 5 and 4 and 8. For the same compound, the Herbicide injury ([3]; AlomyPPO2_R137A T0 cuttings, BAS 800H 25 g ai/ha) was 3, the Herbicide injury ([3]; AlomyPPO2_R137A T0 cuttings, BAS 800H 50 g ai/ha) was 0 and the Herbicide injury ([3]; AlomyPPO2_R137A T0 cuttings, BAS 800H 100 g ai/ha) was 2. For the same compound, the Herbicide injury ([3]; AlomyPPO2_R137A_F438L T0 cuttings, BAS 800H 200 g ai/ha) was 6 and 9, the Herbicide injury ([3]; AlomyPPO2_R137A_F438V T0 cuttings, BAS 800H 200 g ai/ha) was 4 and 3 and 6 and the Herbicide injury ([3]; AlomyPPO2_R137L_F438I T0 cuttings, BAS 800H 100 g ai/ha) was 9. The Herbicide injury ([3]; AlomyPPO2_R137L_F438I T0 cuttings, BAS 800H 200 g ai/ha) was 9, the Herbicide injury ([3]; AlomyPPO2_R137M_F438L T0 cuttings, BAS 800H 50 g ai/ha) was 4 and the Herbicide injury ([3]; AlomyPPO2_R137M_F438L T0 cuttings, BAS 800H 100 g ai/ha) was 6 and 3. It also gave a Herbicide injury ([3]; AlomyPPO2_R137M_F438M T0 cuttings, BAS 800H 50 g ai/ha) of 9, a Herbicide injury ([3]; Wild type cuttings, BAS 800H 25 g ai/ha) of 9 and a Herbicide injury ([3]; Wild type cuttings, BAS 800H 50 g ai/ha) of 9. The Herbicide injury ([3]; Wild type cuttings, BAS 800H 100 g ai/ha) was 9, the Herbicide injury ([3]; Wild type cuttings, BAS 800H 200 g ai/ha) was 9 and the IC50 [4] was 211 nM. It also gave an IC50 [5] greater than 10 µM.
